{"source": "patent EP3884941A1", "about": "“INFLAMMASOME INHIBITORS AND USE THEREOF” (CENTRO DE INVESTIGACION PRINCIPE FELIPE, priority 2020, dated 2021)", "key": {"NLRC4 inflammasome": {"test_system": "NLRC4 inflammasome", "test": "NLRC4 inflammasome activation, Salmonella Typhimurium, THP-1 cells", "format": "cell-based, human", "details": "MM01 10 µM", "procedure": "(§1) The materials and methods employed in these experiments are now described. The molecules were evaluated in the THP-1, or PMA-differentiated THP-1 cells (50 nM PMA for 24h) as described in Example 3. To stimulate NLRP1 inflammasome, cells were either mock-treated or primed with compounds at the indicated concentrations for 30 min, followed by treatment with 100 ng/mL LPS (Sigma) and 50 µg/ml MDP (Sigma) for 6 h at 37°C. In the case of NLRC4 inflammasome induction, cells were pretreated with the compounds for 30 min and then cells were stimulated for 3 h with Salmonella Typhimurium (MOI 5). To induce AIM2 inflammasome, cells were pretreated in the same conditions as before and transfected with poly(dA:dT) (200 µg/ml; Sigma) overnight using Lipofectamine 2000 (Invitrogen). Both IL-1β secretion and the release of IL-18 were monitored as previously described in Example 3."}, "[1]": {"test_system": "NLRP3 activation in MSU-induced peritonitis", "test": "MSU-induced peritonitis mouse model", "format": "in vivo, C57BL/6 mice", "details": "10 mg/kg i.p. 30 min before MSU 2 mg/mouse i.p.", "procedure": "We next evaluated the efficacy of MM01 in a murine MSU-induced peritonitis model. (Spalinger MR et al. Bio-protocol 2018; 8(5): e2754). Mono-sodium urate (MSU; InvivoGen) crystals are potent activators of the NLRP3 receptor. Upon activation, NLRP3 induces the formation of inflammasome complex, which lead to the production and release of mature IL-1β. In the early phase of peritonitis, the number of infiltrating neutrophils correlates with the production of mature IL-1β. MM01 was injected intraperitoneal 30 min before MSU crystals i.p. injection.\nIn vivo model was performed according to the protocol approved by the Institutional Animal Ethical Committee of CIPF. C57BL/6 mice were injected i.p. with 10 mg/kg MM01 or vehicle 30 min before i.p. injection of MSU (2 mg MSU crystals in 200 µl sterile PBS). After 6 h, mice were sacrificed, and peritoneal lavage with 5 ml of PBS was performed. Cytokine IL-1β secretion was determined by ELISA (#DY401 R&D Systems) and neutrophil content measured in ACVLAB Laboratorio Valencia."}, "human NLRP1 inflammasome": {"test_system": "human NLRP1 inflammasome", "test": "NLRP1 inflammasome activation, LPS plus MDP, THP-1 cells", "format": "cell-based", "procedure": "as §1"}}, "data": [{"smiles": "C=CCN1C(=O)/C(=C2/C(=O)Nc3ccccc32)SC1=S", "note": "[MM01]", "values": [{"measurement": "cytokine maturation and release", "setting": "NLRC4 inflammasome; THP-1, Salmonella infection (MOI 5)", "value": "impaired"}, {"measurement": "pyroptosis", "setting": "NLRC4 inflammasome; THP-1, Salmonella infection, LDH", "value": "decrease"}, {"measurement": "neutrophil recruitment", "setting": "[1]; peritoneal cavity after 6 h", "value": "efficiently suppressed"}, {"measurement": "MSU injection-induced IL-1β production", "setting": "[1]; peritoneal lavage after 6 h, ELISA", "value": "efficiently suppressed"}, {"measurement": "IL-18 release", "setting": "human NLRP1 inflammasome; THP-1, LPS 100 ng/ml + MDP 50 µg/ml", "value": "avoided"}, {"measurement": "IL-1β release", "setting": "human NLRP1 inflammasome; THP-1, LPS 100 ng/ml + MDP 50 µg/ml, MM01 1, 2.5 or 5 µM", "value": "avoided"}, {"measurement": "procaspase-1 activation", "setting": "human NLRP1 inflammasome; THP-1, LPS 100 ng/ml + MDP 50 µg/ml, pretreatment", "value": "avoided"}, {"measurement": "pyroptotic cell death", "setting": "human NLRP1 inflammasome; THP-1, LPS + MDP, LDH release", "value": "protected"}]}]}
